Earlier results, collected in patent US20030003131A1, “Method for manufacture of free-flowing powder containing water-dispersible sterols” (priority 2001, published 2003).
Where two headings read alike, the source gives them in different places.

Assays:
cholesterol absorption [1] = settings: oil-free delivery system with emulsifier
cholesterol absorption [2] = tested on: cholesterol absorption
LDL cholesterol = settings: 2.8 g sitostanol/day given as sitostanol ester in margarine

CC[C@H](CC[C@@H](C)[C@H]1CC[C@H]2[C@@H]3CC[C@H]4C[C@@H](O)CC[C@]4(C)[C@H]3CC[C@]12C)C(C)C [sitostanol]
reduction of serum cholesterol (serum cholesterol; 1.5 g/day, subjects with severe hypercholesterolemia): 15% | effect on serum cholesterol (serum cholesterol; 3 g/day, subjects with moderate hypercholesterolemia): no effect | reduction of cholesterol absorption (cholesterol absorption [1]): ≤ 37%

CC[C@H](CC[C@@H](C)[C@H]1CC[C@H]2[C@@H]3CC=C4C[C@@H](O)CC[C@]4(C)[C@H]3CC[C@]12C)C(C)C [sitosterol]
decrease of serum cholesterol levels (serum cholesterol; 3-9 g/day of powdered sitosterol, dose-response study): 12% | reduction of serum cholesterol (serum cholesterol; doses of 5-18 g sitosterol/day): 16-20%

neomycin
effect on cholesterol absorption (cholesterol absorption [2]; orally administered): reduces cholesterol absorption effectively

sitostanol ester
reduction of LDL cholesterol (LDL cholesterol): 16% | less effective at reducing cholesterol absorption compared to the unesterified sterol (cholesterol absorption [2]; humans, ester dissolved in dietary fat): 21%
